Measured values as given in ChEMBL document CHEMBL5137067, “Spiro-naphthyridine Antagonists of the Melanocortin Receptor 4 for the Treatment of Cachexia Associated with Chronic Illness” (ACS Med Chem Lett, 2022).

molecular target: T1, Melanocortin receptor 4 (Homo sapiens, UniProt P32245); test: Antagonist activity at human MC4R expressed in CHO cells assessed as decrease in alpha-MSH induced cAMP level by measuring equilibrium binding constant preincubated for 30 mins followed by alpha-MSH addition measured after 30 mins by HTRF method; assay type: functional, cell-based; settings: filed as antagonist, time 60.0 min
T1 sequence (P32245 whole entry): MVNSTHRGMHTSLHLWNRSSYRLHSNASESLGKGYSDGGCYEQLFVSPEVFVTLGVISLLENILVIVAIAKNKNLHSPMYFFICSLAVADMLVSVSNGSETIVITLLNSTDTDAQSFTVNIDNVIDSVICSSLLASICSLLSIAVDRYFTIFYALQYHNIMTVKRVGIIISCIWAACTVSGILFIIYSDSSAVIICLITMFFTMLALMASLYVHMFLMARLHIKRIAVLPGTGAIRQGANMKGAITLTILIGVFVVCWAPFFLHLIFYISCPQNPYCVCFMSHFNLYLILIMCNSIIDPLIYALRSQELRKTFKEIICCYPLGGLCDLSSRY

Kb [pM]	SMILES
400	COc1cc(OC)cc([C@@H](C)C(=O)N2CCC3(CCc4cc(-c5cnn(C)c5)c(C)nc4N3)C2)c1 (single isomer, unassigned)
8500	Cc1nc2c(cc1-c1ncccn1)CC[C@@]1(CCN(C(=O)[C@@H](C)c3ccc(OC(F)F)nc3)C1)N2
49	COc1cc([C@@H](C)C(=O)N2CC[C@@]3(CCc4cc(-c5nnn(C)n5)c(C)nc4N3)C2)c(Cl)cn1
180	Cc1nc2c(cc1-c1ncccn1)CC[C@@]1(CCN(C(=O)C(C)c3cc(OC(F)F)ncc3Cl)C1)N2 (single isomer, unassigned)
80	COc1cc([C@@H](C)C(=O)N2CC[C@@]3(CCc4cc(-c5nc(C(F)F)n(C)n5)c(C)nc4N3)C2)c(Cl)cn1
70	COc1cc([C@@H](C)C(=O)N2CC[C@@]3(CCc4cc(-c5nc6ccccn6n5)c(C)nc4N3)C2)c(Cl)cn1
1200	COc1cc([C@@H](C)C(=O)N2CC[C@]3(CCc4cc(-c5nnn(C)n5)c(C)nc4N3)C2)c(Cl)cn1

same assay, conditions: time 60.0 min

Kb [pM]	SMILES
> 96000	Cc1nc2c(cc1-c1ncccn1)CC[C@@]1(CCN(C(=O)C(C)c3ccc(Cl)cc3Cl)C1)N2 (stereo partly drawn)

molecular target: T1, Melanocortin receptor 4; test: Displacement of [125I]-[Nle4-D-phe7]-alpha-MSH from to human MC4R expressed in CHO cells incubated for 2 hrs by liquid scintillation counting method; assay type: cell-based; settings: not given

Ki [pM]	SMILES
540	Cc1nc2c(cc1-c1ncccn1)CC[C@@]1(CCN(C(=O)C(C)c3cc(OC(F)F)ncc3Cl)C1)N2 (single isomer, unassigned)
280	COc1cc([C@@H](C)C(=O)N2CC[C@@]3(CCc4cc(-c5nc6ccccn6n5)c(C)nc4N3)C2)c(Cl)cn1
57000	Cc1nc2c(cc1-c1cnn(C)c1)CC[C@@]1(CCN(C(=O)C(C)c3ccc(OC(F)F)nc3)C1)N2 (stereo partly drawn)
> 200000	Cc1nc2c(cc1-c1ncccn1)CC[C@@]1(CCN(C(=O)[C@H](C)c3ccc(OC(F)F)nc3)C1)N2
82000	Cc1nc2c(cc1-c1ncccn1)CC[C@@]1(CCN(C(=O)C(C)c3ccc(Cl)cc3Cl)C1)N2 (stereo partly drawn)
